Reference: patent publication US20260209196A1, “AMIDINOUREA DERIVATIVES AND THEIR USE IN THE TREATMENT OF CANCER” (UNIVERSITE COTE D'AZUR, priority 2022, published 2026)
Read-outs that look alike come from different tables or passages of the source.

Columns and labels:
Assay type in all cases: cell-based
NCI 60 cell panel = assay: DTP-NCI assay (NCI 60 cell screen, single high dose); details: Homo sapiens, 48 h; single high dose 10^-5 M, full NCI 60 cell panel; growth relative to no-drug control and to time zero number of cells; read-out: DTP-NCI (mean of the percent growth of treated cells)
Experimental: The effect of 10 μM of MTF504 was monitored on a panel 60 cell lines representing nine distinct tumour types: leukemia, colon, lung, central nervous system, renal, melanoma, ovarian, breast and prostate. Briefly, the compound was sent to the US National Cancer Institute where its antineoplastic effects were monitored on the panel of cell lines after 48 hours of treatment following a standardized protocol.
All compounds submitted to the NCI 60 Cell screen are tested initially at a single high dose (10^-5 M) in the full NCI 60 cell panel. The results are reported as a mean of the percent growth of treated cells. The number reported is growth relative to the no-drug control, and relative to the time zero number of cells. This allows detection of […].

A375 = assay: Cell viability of A375 melanoma cells by Trypan Blue exclusion; details: for viability at 5 µM / viability at 10 µM: Homo sapiens, A-375, viable cells as mean percentage of control cells ± SEM, N=3
Experimental: The BRAFV600E mutant melanoma line A375 (CRL-1619) was purchased from ATCC (Manassas, VA, USA). The A375 were maintained in glutamine-containing DMEM supplemented with 10% heat-inactivated fetal bovine serum, penicillin (100 units/ml) and streptomycin ([…]).
(§1) Cell viability was measured by the Trypan Blue exclusion method. Briefly, cells washed with PBS were harvested by a 3-minute incubation in 0.05% trypsin before neutralization with serum containing medium. An aliquot of the cell suspension was then mixed 1:1 with a 0.4% Trypan blue solution and viable cells were counted within 5 minutes on Kova slides under an optical microscope. Results are expressed as the mean percentage of control cells±SEM. N=3

normal human melanocytes = assay: Toxicity on normal human melanocytes by Trypan blue counting; details: FIG. 3
Experimental: Normal human melanocytes were obtained from the foreskins of Caucasian children and grown in MCDB 153 medium supplemented with 2% fetal calf serum, 0.5 mg/ml hydrocortisone, 5 mg/ml insulin, 16 nM phorbol-12 myristate 13-acetate, 1 ng/ml basic fibroblast growth factor, 20 mg/ml bovine pituitary extract, […], and penicillin/streptomycin (100 U/ml/[…]). All cells were maintained in humidified incubators at 37° C. with 5% CO2.
as §1

[1] = 24 h, read-out: Viab A375 5 μM/24 h
[2] = 48 h, read-out: Viab A375 5 μM/48 h

With `N=C(NC(=O)Nc1ccccc1Cl)Nc1nc2ccccc2s1` [MTF504, N-benzo[d]thiazol-2-yl-N″-(2-chloroaniline-carbonyl)-guanidine] the activity at 10 µM (NCI 60 cell panel) was 25.4%, the viability at 5 µM (A375; [1]) was 26% and the viability at 5 µM (A375; [2]) was 7.1%. The “decrease of melanoma cell viability versus CRO15 and MTF319” value (A375; after 24 hours of treatment, FIG. 5) was “more efficient than previously reported compounds” and the “toxicity on normal human melanocytes” value (normal human melanocytes) was “absence of toxicity”.

`Cc1cccc(NC(=O)NC(=N)Nc2nc3ccccc3s2)c1` [MTF420, N-benzo[d]thiazol-2-yl-N″-(3-methylaniline-carbonyl)-guanidine] was tested, and the activity at 10 µM (NCI 60 cell panel) was 32.9%, the viability at 5 µM (A375; [1]) was 59% and the viability at 5 µM (A375; [2]) was 24.8%. It also gave a viability at 10 µM (A375; 24 h, read-out: Viab A375 10 μM/24 h) of 48.9% and a viability at 10 µM (A375; 48 h, read-out: Viab A375 10 μM/48 h) of 20.4%.
